Experimental data: patent US12365667B2, “Sulfone pyridine alkyl amide-substituted heteroaryl compounds” (BRISTOL-MYERS SQUIBB COMPANY, priority 2017, dated 2025)

What follows are molecules tested on IFNα-induced STAT phosphorylation (pSTAT5) in human whole blood (assay: IFNα-Induced STAT Phosphorylation in Human Whole Blood). Conditions: 1 h incubation with compound, 1000 U/mL recombinant human IFNα A/D for 15 min, pSTAT5 in CD3 positive population, read-out: IFNα-Induced Stat Phosph. (IC50).
Type: cell-based
Description: IFNα-Induced STAT Phosphorylation in Human Whole Blood
After an hour long incubation with compound, human whole blood (drawn with either EDTA or ACD-A as anti-coagulant) was stimulated with 1000 U/mL recombinant human IFNα A/D (R&D Systems 11200-2) for 15 min. The stimulation was stopped by adding Fix/Lyse buffer (BD 558049). Cells were stained with a CD3 FITC antibody (BD 555916), washed, and permeabilized on ice using Perm III buffer (BD 558050). Cells were then stained with an Alexa-Fluor 647 pSTAT5 (pY694) antibody (BD 612599) for 30 min prior to analysis on the FACS Canto II. The amount of pSTAT5 expression was quantitated by median fluorescence intensity after gating on the CD3 positive population.

| Structure (SMILES) | IC50 [nM] |
| --- | --- |
| CNC(=O)c1nnc(Nc2ccc(COC)cn2)cc1Nc1ncccc1S(C)(=O)=O [Example 154] | 6 |
| CCCOC(=O)Nc1cc(Nc2ncccc2S(C)(=O)=O)c(C(=O)NC)nn1 [Example 136] | 349 |
| CNC(=O)c1nnc(Nc2cc(C(C)(C)NC(C)C)ccn2)cc1Nc1ncccc1S(C)(=O)=O [Example 72] | 23 |
| CNC(=O)c1nnc(Nc2cc(OC)c(C(C)(C)O)cn2)cc1Nc1ncccc1S(C)(=O)=O [Example 36] | 22 |
| CNC(=O)c1nnc(Nc2cc(N(C)C)ncn2)cc1Nc1ncccc1S(C)(=O)=O [Example 34] | 115 |
| CNC(=O)c1nnc(Nc2cncc(-c3ccccc3)n2)cc1Nc1ncccc1S(C)(=O)=O [Example 115] | 190 |
| CNC(=O)c1nnc(Nc2ccc(Cl)nn2)cc1Nc1ncccc1S(C)(=O)=O [Example 90] | 13 |
| CNC(=O)c1nnc(Nc2ccc(C3CC3)nn2)cc1Nc1ncccc1S(C)(=O)=O [Example 15] | 13 |
| CCOC(=O)Nc1cc(Nc2ncccc2S(C)(=O)=O)c(C(=O)NC)nn1 [Example 132] | 209 |
| CNC(=O)c1nnc(Nc2ccc(C(C)(C)NC(=O)OC(C)C)cn2)cc1Nc1ncccc1S(C)(=O)=O [Example 78] | 40 |
| CNC(=O)c1nnc(Nc2ccc(C(C)(C)OC)cn2)cc1Nc1ncccc1S(C)(=O)=O [Example 157] | 21 |
| CNC(=O)c1nnc(Nc2cncc(C(F)(F)F)n2)cc1Nc1ncccc1S(C)(=O)=O [Example 127] | 302 |
| CNC(=O)c1nnc(Nc2cc(C(C)(C)O)c(F)cn2)cc1Nc1ncccc1S(C)(=O)=O [Example 22] | 31 |
| CNC(=O)c1nnc(Nc2cn(C3CC3)nn2)cc1Nc1ncccc1S(C)(=O)=O [Example 56] | 18 |
| CNC(=O)c1nnc(NC(=O)C2CC23CC3)cc1Nc1ncccc1S(C)(=O)=O (centres unmarked) [Example 47] | 48 |
| CNC(=O)c1nnc(Nc2cc(C(C)(C)N(C)C)ccn2)cc1Nc1ncccc1S(C)(=O)=O [Example 73] | 76 |
| CNC(=O)c1nnc(Nc2ccn(CC(F)F)n2)cc1Nc1ncccc1S(C)(=O)=O [Example 20] | 47 |
| CNC(=O)c1nnc(Nc2cc(C3CC3)ncn2)cc1Nc1ncccc1S(C)(=O)=O [Example 14] | 11 |
| CCOc1cc(Nc2cc(Nc3ncccc3S(C)(=O)=O)c(C(=O)NC)nn2)ncc1C(=O)NC1CC1 [Example 148] | 408 |
| CNC(=O)c1nnc(Nc2cccc(C3CC3)n2)cc1Nc1ncccc1S(C)(=O)=O [Example 152] | 40 |
| CNC(=O)c1nnc(Nc2ccc(C(C)(C)OC(=O)CN)cn2)cc1Nc1ncccc1S(C)(=O)=O [Example 67] | 3580 |
| CNC(=O)c1nnc(Nc2cccc(C(F)(F)F)n2)cc1Nc1ncccc1S(C)(=O)=O [Example 113] | 88 |
| CNC(=O)c1nnc(Nc2ccc(-n3cccc(C(F)(F)F)c3=O)cn2)cc1Nc1ncccc1S(C)(=O)=O [Example 92] | 13 |
| CNC(=O)c1nnc(NC(=O)CC(C)(C)C)cc1Nc1ncccc1S(C)(=O)=O [Example 139] | 893 |
| CNC(=O)c1nnc(NC(=O)OC(C)C)cc1Nc1ncccc1S(C)(=O)=O [Example 134] | 296 |
| CNC(=O)c1nnc(Nc2ccnc(C3CC3)n2)cc1Nc1ncccc1S(C)(=O)=O [Example 40] | 18 |
| CNC(=O)c1nnc(Nc2cc(F)c(F)cn2)cc1Nc1ncccc1S(C)(=O)=O [Example 87] | 417 |
| CNC(=O)c1nnc(Nc2cnc3c(n2)CCCCC3)cc1Nc1ncccc1S(C)(=O)=O [Example 99] | 44 |

Second part, the molecule after the results:

| IC50 [nM] | Structure (SMILES) |
| --- | --- |
| 59 | CNC(=O)c1cnc(Nc2cnc(C3CC3)cn2)cc1Nc1ncccc1S(C)(=O)=O [Example 222] |
| 61 | CNC(=O)c1cnc(Nc2cc(C)c(C#N)cn2)cc1Nc1ncccc1S(C)(=O)=O [Example 233] |
| 115 | CNC(=O)c1cnc(Nc2ccc(OC(F)(F)F)cn2)cc1Nc1ncccc1S(C)(=O)=O [Example 240] |
| 73 | CNC(=O)c1nnc(NC(=O)C2CC2)cc1Nc1nc(F)ccc1S(C)(=O)=O [Example 180] |
| 22 | CNC(=O)c1cnc(Nc2cc(C#N)c(C)cn2)cc1Nc1ncccc1S(C)(=O)=O [Example 230] |
| 24 | CNC(=O)c1nnc(Nc2ccc(C(C)(C)O)cn2)cc1Nc1nc(OC)ccc1S(C)(=O)=O [Example 201] |
| 58 | CNC(=O)c1nnc(Nc2cc(C3CC3)ccn2)cc1Nc1nc(C)ccc1S(C)(=O)=O [Example 197] |
| 165 | CCCCNC(=O)Nc1cc(Nc2nc(C)ccc2S(C)(=O)=O)c(C(=O)NC)nn1 [Example 193] |
| 164 | CNC(=O)c1cnc(Nc2cc(C(F)(F)F)ncn2)cc1Nc1ncccc1S(C)(=O)=O [Example 225] |
| 144 | CCC(=O)Nc1cc(Nc2ncccc2S(C)(=O)=O)c(C(=O)NC)cn1 [Example 235] |
| 11 | CNC(=O)c1nnc(Nc2ccccn2)cc1Nc1ncccc1S(C)(=O)=O [Example 160] |
| 47 | [2H]C([2H])([2H])NC(=O)c1nnc(NC(=O)[C@H]2CC23CC3)cc1Nc1ncccc1S(C)(=O)=O [Example 253, (S)—N-(methyl-d3)-4-((3-(methylsulfonyl)pyridin-2-yl)amino)-6-(spiro[2.2]pentane-1-carboxamido)pyridazine-3-carboxamide] |
| 744 | CNC(=O)c1nnc(Nc2ccn(C)n2)cc1Nc1ncccc1[S+](C)[O-] (centres unmarked) [Example 256] |
| 211 | CNC(=O)c1nnc(Nc2ccn3nccc3n2)cc1Nc1nc(C)ccc1S(C)(=O)=O [Example 195] |
| 47 | CNC(=O)c1nnc(Nc2cc(Cl)n(C)n2)cc1Nc1ncccc1S(C)(=O)=O [Example 161] |
| 550 | CNC(=O)c1nnc(Nc2ccc(OC)nn2)cc1Nc1nc(F)ccc1S(C)(=O)=O [Example 181] |
| 50 | CNC(=O)c1cnc(NC(=O)C2CC2)cc1Nc1nc(C)ccc1S(C)(=O)=O [Example 242] |

Same assay, conditions: Homo sapiens, 1 h incubation with compound, 1000 U/mL recombinant human IFNα A/D for 15 min, pSTAT5 in CD3 positive population, read-out: IFNα-Induced Stat Phosph. (IC50)

| Structure (SMILES) | IC50 [nM] |
| --- | --- |
| [2H]C([2H])([2H])NC(=O)c1nnc(Nc2ccc(F)cn2)cc1Nc1ncccc1S(C)(=O)=O [Example 1, 6-((5-fluoropyridin-2-yl)amino)-N-(methyl-d3)-4-((3-(methylsulfonyl)pyridin-2-yl)amino)pyridazine-3-carboxamide] | 12 |
| [2H]C([2H])([2H])NC(=O)c1nnc(Nc2ccc(C(C)(C)O)cn2)cc1Nc1ncccc1S(C)(=O)=O [Example 13, 6-((5-(2-hydroxypropan-2-yl)pyridin-2-yl)amino)-N-(methyl-d3)-4-((3-(methylsulfonyl)pyridin-2-yl)amino)pyridazine-3-carboxamide] | 2 |

Continued, values first:

| IC50 [nM] | Structure (SMILES) |
| --- | --- |
| 7 | [2H]C([2H])([2H])NC(=O)c1nnc(Nc2cccnn2)cc1Nc1ncccc1S(C)(=O)=O [Example 251, N-(methyl-d3)-4-((3-(methylsulfonyl)pyridin-2-yl)amino)-6-(pyridazin-3-ylamino)pyridazine-3-carboxamide] |
| 1810 | [2H]C([2H])([2H])NC(=O)c1nnc(NC(=O)C2CC2(Cl)Cl)cc1Nc1ncccc1S(C)(=O)=O (centres unmarked) [Example 174, 6-(2,2-dichlorocyclopropane-1-carboxamido)-N-(methyl-d3)-4-((3-(methylsulfonyl)pyridin-2-yl)amino)pyridazine-3-carboxamide] |
| 132 | [2H]C([2H])([2H])NC(=O)c1nnc(NC(=O)[C@@H]2C[C@H]2C(F)(F)F)cc1Nc1ncccc1S(C)(=O)=O [Example 176, N-(methyl-d3)-4-((3-(methylsulfonyl)pyridin-2-yl)amino)-6-((1R,2R)-2-(trifluoromethyl)cyclopropane-1-carboxamido)pyridazine-3-carboxamide] |
| 18 | [2H]C([2H])([2H])NC(=O)c1nnc(Nc2ccc(C(F)F)cn2)cc1Nc1ncccc1S(C)(=O)=O [Example 172, 6-((5-(difluoromethyl)pyridin-2-yl)amino)-N-(methyl-d3)-4-((3-(methylsulfonyl)pyridin-2-yl)amino)pyridazine-3-carboxamide] |
| 114 | COc1ccc(Nc2cc(Nc3ncccc3S(C)(=O)=O)c(C(N)=O)nn2)nn1 [Example 213, 6-((6-methoxypyridazin-3-yl)amino)-4-((3-(methylsulfonyl)pyridin-2-yl)amino)pyridazine-3-carboxamide] |
| 9 | [2H]C([2H])([2H])NC(=O)c1nnc(Nc2ccc(C(C)(C)OC(C)=O)cn2)cc1Nc1ncccc1S(C)(=O)=O [Example 171, 2-(6-((6-((methyl-d3)carbamoyl)-5-((3-(methylsulfonyl)pyridin-2-yl)amino)pyridazin-3-yl)amino)pyridin-3-yl)propan-2-yl acetate] |
| 40 | [2H]C([2H])([2H])NC(=O)c1nnc(Nc2ccn(C)n2)cc1Nc1ncccc1S(C)(=O)=O [Example 166, N-trideuteromethyl-6-((1-methyl-1H-pyrazol-3-yl)amino)-4-((3-(methylsulfonyl)pyridin-2-yl)amino)pyridazine-3-carboxamide] |
| 34 | [2H]C([2H])([2H])NC(=O)c1nnc(Nc2ccc(OC(F)F)nn2)cc1Nc1ncccc1S(C)(=O)=O [Example 246, 6-((6-(difluoromethoxy)pyridazin-3-yl)amino)-N-(methyl-d3)-4-((3-(methylsulfonyl)pyridin-2-yl)amino)pyridazine-3-carboxamide] |
| 6 | [2H]C([2H])([2H])NC(=O)c1nnc(Nc2ccc(C(C)C)nn2)cc1Nc1ncccc1S(C)(=O)=O [Example 247, 6-((6-isopropylpyridazin-3-yl)amino)-N-(methyl-d3)-4-((3-(methylsulfonyl)pyridin-2-yl)amino)pyridazine-3-carboxamide] |
